Experimental data from PubChem BioAssay AID248 (DTP/NCI, 2004).
Values joined by “and” are separate entries in the source; they are usually repeats but may differ in a detail not shown here. Identical values can stand only once. Inconclusive results and toxic doses are left out. Cut-off read from the data, not from the text of the source: active = T/C of 150% or more; inactive = T/C below 125%. Square brackets hold non-standard residues; d marks the D form. Peptide text beside a SMILES is read from it. * marks the point of attachment. Cbz = O=C(OCc1ccccc1)*; Abu = CC[CH](N)C(=O)O; OBn = c1ccc(CO*)cc1

System: L1210 leukemia ip in BDF1 mice, survival T/C
Assay: NCI In Vivo Anticancer Drug Screen. Data for tumor model L1210 Leukemia (intraperitoneal) in B6D2F1 (BDF1) mice
Settings: endpoint: mean survival time, higher = longer survival
Summary of the method: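 Mice bearing the transplanted tumor received compound or vehicle. Survival of the treated group was divided by that of the vehicle-treated control group to give the ratio.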

[1] = dose: 50.0 mg/kg/injection, schedule: Q01DX001 (ip), vehicle: carboxymethylcellulose (CMC)
[2] = dose: 100.0 mg/kg/injection, schedule: Q01DX001 (ip), vehicle: carboxymethylcellulose (CMC)
[3] = dose: 200.0 mg/kg/injection, schedule: Q01DX001 (ip), vehicle: carboxymethylcellulose (CMC)
[4] = dose: 400.0 mg/kg/injection, schedule: Q01DX001 (ip), vehicle: carboxymethylcellulose (CMC)
[5] = dose: 100.0 mg/kg/injection, schedule: Q01DX001 (ip), vehicle: saline
[6] = dose: 100.0 mg/kg/injection, schedule: Q04DX002 (ip), vehicle: saline with Tween-80
[7] = dose: 200.0 mg/kg/injection, schedule: Q01DX001 (ip), vehicle: saline
[8] = dose: 200.0 mg/kg/injection, schedule: Q04DX002 (ip), vehicle: saline with Tween-80
[9] = dose: 400.0 mg/kg/injection, schedule: Q01DX001 (ip), vehicle: saline
[10] = dose: 100.0 mg/kg/injection, schedule: Q01DX009 (ip), vehicle: saline with Tween-80
[11] = dose: 100.0 mg/kg/injection, schedule: Q04DX003 (ip), vehicle: Klucel (hydroxypropylcellulose) (HPC)
[12] = dose: 200.0 mg/kg/injection, schedule: Q01DX009 (ip), vehicle: saline with Tween-80
[13] = dose: 200.0 mg/kg/injection, schedule: Q04DX003 (ip), vehicle: Klucel (hydroxypropylcellulose) (HPC)
[14] = dose: 400.0 mg/kg/injection, schedule: Q01DX009 (ip), vehicle: saline with Tween-80
[15] = dose: 400.0 mg/kg/injection, schedule: Q04DX003 (ip), vehicle: Klucel (hydroxypropylcellulose) (HPC)
[16] = dose: 400.0 mg/kg/injection, schedule: Q04DX002 (ip), vehicle: saline with Tween-80
[17] = dose: 100.0 mg/kg/injection, schedule: Q04DX003 (ip), vehicle: saline with Tween-80
[18] = dose: 200.0 mg/kg/injection, schedule: Q04DX003 (ip), vehicle: saline with Tween-80
[19] = dose: 400.0 mg/kg/injection, schedule: Q04DX003 (ip), vehicle: saline with Tween-80
[20] = dose: 25.0 mg/kg/injection, schedule: Q04DX003 (ip), vehicle: saline
[21] = dose: 50.0 mg/kg/injection, schedule: Q04DX003 (ip), vehicle: saline
[22] = dose: 100.0 mg/kg/injection, schedule: Q04DX003 (ip), vehicle: saline
[23] = dose: 50.0 mg/kg/injection, schedule: Q01DX009 (ip), vehicle: saline with Tween-80
[24] = dose: 100.0 mg/kg/injection, schedule: Q01DX009 (ip), vehicle: Klucel (hydroxypropylcellulose) (HPC)
[25] = dose: 200.0 mg/kg/injection, schedule: Q01DX009 (ip), vehicle: Klucel (hydroxypropylcellulose) (HPC)
[26] = dose: 400.0 mg/kg/injection, schedule: Q01DX009 (ip), vehicle: Klucel (hydroxypropylcellulose) (HPC)

Measured: T/C

O=P1(Nc2ccccc2)OCCCN1Cc1ccccc1Cl (stereo not drawn)
inactive: [1] 98 % of control | [2] 98 % of control | [3] 98 % of control | [4] 93 % of control

CCN(CC)c1ccc(N)cc1
inactive: dose: 6.25 mg/kg/injection, schedule: Q01DX009 (ip), vehicle: saline with Tween-80 112 % of control | dose: 12.5 mg/kg/injection, schedule: Q01DX009 (ip), vehicle: saline with Tween-80 102 % of control | dose: 12.5 mg/kg/injection, schedule: Q04DX003 (ip), vehicle: saline with Tween-80 100 % of control | dose: 25.0 mg/kg/injection, schedule: Q01DX009 (ip), vehicle: saline with Tween-80 104 % of control | dose: 25.0 mg/kg/injection, schedule: Q04DX003 (ip), vehicle: saline with Tween-80 94 % of control

O=C1OC(C(O)CO)C(O)C1O (stereo not drawn)
inactive: dose: 25.0 mg/kg/injection, schedule: Q04DX002 (ip), vehicle: saline with Tween-80 101 % of control | dose: 50.0 mg/kg/injection, schedule: Q01DX001 (ip), vehicle: saline 94 % of control | dose: 50.0 mg/kg/injection, schedule: Q04DX002 (ip), vehicle: saline with Tween-80 101 % of control | [5] 100 % of control | [6] 96 % of control | [7] 100 % of control | [8] 101 % of control | [9] 92 % of control

CCOC(=O)c1cc(CC)sc1N
inactive: [10] 96 % of control | [11] 91 % of control | [12] 86 % of control | [13] 97 % of control | [14] 90 % of control | [15] 96 % of control

CC(C)(C)CC(C)(C)N(CSc1ccc(Br)cc1)CSc1ccc(Br)cc1
inactive: [5] 89 % of control | [7] 90 % of control | [9] 93 % of control

CCOC(=O)C(CNC(N)=O)(c1ccccc1)c1ccccc1
inactive: [1] 93 % of control | [2] 102 % of control | [3] 87 % of control | [4] 98 % of control

O=C1OC(c2ccco2)=N/C1=C\c1ccc(Cl)c(Cl)c1
inactive: [6] 108 % of control | [8] 105 % of control | [16] 108 % of control

NC(CSS(=O)(=O)O)=NC1CC2CCC1C2 (stereo not drawn)
inactive: dose: 6.25 mg/kg/injection, schedule: Q01DX001 (ip), vehicle: saline 97 % of control | dose: 6.25 mg/kg/injection, schedule: Q01DX009 (ip), vehicle: Klucel (hydroxypropylcellulose) (HPC) 98 % of control | dose: 6.25 mg/kg/injection, schedule: Q01DX009 (ip), vehicle: saline 95 % of control and 103 % of control | dose: 6.25 mg/kg/injection, schedule: Q04DX002 (ip), vehicle: saline 112 % of control and 117 % of control | dose: 12.5 mg/kg/injection, schedule: Q01DX001 (ip), vehicle: saline 95 % of control | dose: 12.5 mg/kg/injection, schedule: Q01DX009 (ip), vehicle: Klucel (hydroxypropylcellulose) (HPC) 95 % of control | dose: 12.5 mg/kg/injection, schedule: Q01DX009 (ip), vehicle: saline 100 % of control and 91 % of control | dose: 12.5 mg/kg/injection, schedule: Q04DX002 (ip), vehicle: Klucel (hydroxypropylcellulose) (HPC) 100 % of control | dose: 12.5 mg/kg/injection, schedule: Q04DX002 (ip), vehicle: saline 101 % of control and 87 % of control | dose: 25.0 mg/kg/injection, schedule: Q01DX001 (ip), vehicle: saline with Tween-80 112 % of control | dose: 25.0 mg/kg/injection, schedule: Q01DX001 (ip), vehicle: saline 92 % of control | dose: 25.0 mg/kg/injection, schedule: Q01DX009 (ip), vehicle: Klucel (hydroxypropylcellulose) (HPC) 104 % of control | dose: 25.0 mg/kg/injection, schedule: Q01DX009 (ip), vehicle: saline 94 % of control and 88 % of control | dose: 25.0 mg/kg/injection, schedule: Q04DX002 (ip), vehicle: Klucel (hydroxypropylcellulose) (HPC) 92 % of control | dose: 50.0 mg/kg/injection, schedule: Q04DX002 (ip), vehicle: saline 117 % of control

O=C(/C=C/c1ccc(F)cc1)c1ccc(Cl)cc1
inactive: [10] 101 % of control | [17] 96 % of control | [12] 92 % of control | [18] 90 % of control | [14] 103 % of control | [19] 94 % of control

C=CCC1CC2(C)C(CCC3C2CCC2(C)C(C(C)CCCC(C)C)CCC32)CC1O (stereo not drawn)
inactive: dose: 100.0 mg/kg/injection, schedule: Q01DX009 (ip), vehicle: gum acacia 87 % of control | dose: 200.0 mg/kg/injection, schedule: Q01DX009 (ip), vehicle: gum acacia 87 % of control | dose: 400.0 mg/kg/injection, schedule: Q01DX009 (ip), vehicle: gum acacia 104 % of control

CNC(=O)Oc1cccc(NC(=O)OC(C)C)c1
inactive: [10] 97 % of control | [12] 98 % of control | [14] 92 % of control

CC(CO)(CO)N=Cc1cc(I)cc(I)c1O
inactive: [2] 93 % of control | [3] 98 % of control | [4] 95 % of control

CC1(C)C(=NC2CCCCC2)C(C)(C)C1=NC1CCCCC1
inactive: dose: 75.0 mg/kg/injection, schedule: Q01DX001 (ip), vehicle: saline 101 % of control | dose: 150.0 mg/kg/injection, schedule: Q01DX001 (ip), vehicle: saline 100 % of control | dose: 300.0 mg/kg/injection, schedule: Q01DX001 (ip), vehicle: saline 100 % of control

C1CCN(CCC2CCNCC2)CC1
inactive: [20] 97 % of control | [21] 97 % of control | [22] 99 % of control and 100 % of control

c1ccc([Si](O[O][Ge]([c]2ccccc2)([c]2ccccc2)[c]2ccccc2)(c2ccccc2)c2ccccc2)cc1
inactive: [11] 93 % of control | [13] 86 % of control | [15] 89 % of control

CCn1c(=O)sc2cc(Cl)ccc21
inactive: [5] 102 % of control | [7] 98 % of control | [9] 108 % of control

CCN1CC=CCC1
inactive: [20] 93 % of control | dose: 50.0 mg/kg/injection, schedule: Q01DX009 (ip), vehicle: saline 100 % of control | [21] 98 % of control | dose: 100.0 mg/kg/injection, schedule: Q01DX009 (ip), vehicle: saline 100 % of control | [22] 103 % of control and 91 % of control

O=C1C(=O)c2c3ccccc3cc3cccc1c23
inactive: [23] 88 % of control | [10] 91 % of control

CCC(NC(=O)OCc1ccccc1)C(=O)NC(Cc1ccc(O)cc1)C(=O)OCc1ccccc1 (stereo not drawn) (Cbz-[Abu]-Tyr-OBn; configuration not given here)
inactive: [24] 102 % of control | [25] 91 % of control | [26] 99 % of control

CCCCCCCC(=O)CC(C)C
inactive: [24] 109 % of control | [11] 93 % of control | [25] 98 % of control | [13] 96 % of control | [26] 107 % of control | [15] 96 % of control

Nc1nc(N)c(CCCCc2ccccc2)c(Cc2ccccc2)n1
inactive: dose: 50.0 mg/kg/injection, schedule: Q01DX009 (ip), vehicle: Klucel (hydroxypropylcellulose) (HPC) 98 % of control | [24] 106 % of control | [25] 98 % of control

CN(C)C(=S)Sc1nc2ccccc2s1
inactive: [11] 101 % of control | [13] 104 % of control | [15] 101 % of control

COc1ccc([N+](=O)[O-])cc1NS(=O)(=O)c1c(C)cc(C)cc1C
inactive: [23] 94 % of control and 88 % of control | dose: 100.0 mg/kg/injection, schedule: Q01DX001 (ip), vehicle: saline with Tween-80 92 % of control | [10] 94 % of control and 97 % of control | [6] 107 % of control | [17] 98 % of control | dose: 200.0 mg/kg/injection, schedule: Q01DX001 (ip), vehicle: saline with Tween-80 104 % of control | [12] 97 % of control and 103 % of control | [8] 103 % of control | [18] 97 % of control | dose: 400.0 mg/kg/injection, schedule: Q01DX001 (ip), vehicle: saline with Tween-80 92 % of control | [14] 97 % of control | [16] 103 % of control | [19] 93 % of control

CC1CCN(S(=O)(=O)c2ccc(Cl)cc2)CC1
inactive: [24] 102 % of control | [25] 97 % of control | [26] 97 % of control
